Test results: patent US12187773B2, “Modified GIP peptide analogues” (Antag Therapeutics ApS, priority 2018, dated 2025)
Where a SMILES comes first, the peptide text is derived from it. The star is where a group is joined. C16 diacid = O=C(O)CCCCCCCCCCCCCCC(=O)*

Columns and labels:
Assay type in all cases: cell-based
human GIP receptor [1] = biological target: T1, human GIP receptor (Homo sapiens, UniProt P48546); experiment: cAMP accumulation, agonism (DiscoveRx HitHunter cAMP XS assay); design: host or cells: COS-7 (transient, calcium phosphate; pCMV-Script vector); details: COS-7, read-out: cAMP agonism, Emax
T1 sequence (P48546 22-466): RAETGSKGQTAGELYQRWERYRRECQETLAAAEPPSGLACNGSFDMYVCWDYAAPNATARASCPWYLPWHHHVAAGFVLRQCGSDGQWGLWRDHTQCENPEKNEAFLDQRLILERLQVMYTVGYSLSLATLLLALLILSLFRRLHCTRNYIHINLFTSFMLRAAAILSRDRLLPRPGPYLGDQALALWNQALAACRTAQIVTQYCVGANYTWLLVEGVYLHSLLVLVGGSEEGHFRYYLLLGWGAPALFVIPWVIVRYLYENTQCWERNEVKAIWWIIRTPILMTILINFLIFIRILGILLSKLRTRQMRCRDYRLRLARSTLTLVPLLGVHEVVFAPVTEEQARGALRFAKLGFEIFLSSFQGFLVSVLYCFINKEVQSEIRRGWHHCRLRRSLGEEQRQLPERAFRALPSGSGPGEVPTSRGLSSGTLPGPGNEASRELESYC
Protocol: Transient transfected COS-7 cells expressing the human GIP receptor were seeded in white 96-well plates with a density of 3.5*10^4/well. The day after, the cells were washed twice with Hepes buffered saline (HBS) buffer and incubated with HBS and 1 mM 3-isobutyl-1-methylxanthine (IBMX) for 30 min at 37° C. To test for agonistic properties, ligands were added and incubated for 30 min at 37° C. In order to test for antagonistic properties, the cells were preincubated with the antagonists for 10 min prior to the addition of the agonist and subsequent incubated for 20 additional min. The HitHunter™ cAMP XS assay (DiscoveRx) was carried out according to the manufacturer's instructions.
In order to develop a GIP receptor antagonist with improved antagonistic properties, individual amino acid substitutions were conducted on GIP(3-30)NH2 and in particular at positions: 16, 18, 30 or 3, 16, 18, 30. The obtained peptides were lipidated at position 18 directly or via a linker. Both the agonistic and antagonistic profiles of the compounds were tested in cAMP accumulation experiments done in transiently transfected COS-7 cells expressing the human GIP receptor. To investigate if these mutated analogues still retained their antagonistic properties, their ability to inhibit a GIP-mediated cAMP response corresponding to 50-80% of maximum activation was examined.

human GIP receptor [2] = biological target: T1, human GIP receptor; experiment: cAMP antagonism (CisBio cAMP Dynamic 2 HTRF assay); design: pCMV-Script vector; details: CisBio, HEK-293 cells; for IC50: cAMP antagonism, agonist GIP1-42 at EC50
Protocol: The in vitro functional activity of compounds towards human GIP receptor can also be determined in HEK-293 cells transiently expressing the receptor. On the day of the assay, cells were resuspended in HBSS buffer (Gibco, 14025-50) supplemented with 20 mM HEPES (Gibco, 15630-106), 0,1% Pluronic F-68 (Gibco, 24040-032) and 0,1% casein (Sigma, C4765), and plated in 384-well plates at a density of 5000 cells/well. The GIP peptide analogues of the present disclosure were diluted in HBSS buffer supplemented with 20 mM HEPES, 0,1% pluronic, 0,1% casein and 500 uM IBMX. […] The resulting decrease in intracellular cAMP was quantitatively determined using the CisBio cAMP Dynamic 2 HTRF Assay Kit. The assay is based on a competition between native cAMP produced by cells and cAMP labeled with the dye d2 for binding to a cryptate labeled antibody. The specific signal (i.e. energy transfer signal) is inversely proportional to the concentration of cAMP in the sample.
The cAMP-d2 conjugate and the antibody anti-cAMP-Cryptate, both diluted in lysis buffer provided in the kit, were added to the cells according to the manufacturer's protocol. The resulting competitive assay was incubated for 60 minutes at room temperature, and the signal was detected by using a PerkinElmer Envision® instrument with excitation at 320 nm and emission at 665 nm and 620 nm. The HTRF ratio (emission at 665 nm/620 nm*10,000) is inversely proportional to the amount of cAMP present and is converted to nM cAMP per well using a cAMP standard curve. The dose-response curves were fitted using the non-linear regression analysis (four-logistic parameter equation) in GraphPad Prism, whereby pIC50 values were estimated.

human GIP receptor [3] = biological target: T1, human GIP receptor; experiment: cAMP agonism (CisBio cAMP Dynamic 2 HTRF assay); details: HEK293, read-out: cAMP agonism, % Efficacy, Table 1C, HEK-293 cells
Protocol: To test for agonistic properties at the GIP receptor, compounds were diluted and added to cells as described above and incubated for 30 min at 37° C. The resulting increase in intracellular cAMP was determined using the CisBio cAMP Dynamic 2 HTRF Assay Kit as described above.

CC[C@H](C)[C@H](NC(=O)[C@H](CO)NC(=O)[C@H](Cc1ccc(O)cc1)NC(=O)[C@H](CC(=O)O)NC(=O)[C@H](CO)NC(=O)[C@@H](NC(=O)[C@H](Cc1ccccc1)NC(=O)[C@@H](NC(=O)CNC(=O)[C@@H]1CCCN1)[C@@H](C)O)[C@@H](C)CC)C(=O)N[C@@H](C)C(=O)N[C@@H](CCSC)C(=O)N[C@@H](CC(=O)O)C(=O)N[C@@H](CCCNC(=N)N)C(=O)N[C@H](C(=O)N[C@@H](CCCCNC(=O)CCCCCCCCCCCCCCC(=O)O)C(=O)N[C@@H](CCC(N)=O)C(=O)N[C@@H](CCC(N)=O)C(=O)N[C@@H](CC(=O)O)C(=O)N[C@@H](Cc1ccccc1)C(=O)N[C@H](C(=O)N[C@@H](CC(N)=O)C(=O)N[C@@H](Cc1c[nH]c2ccccc12)C(=O)N[C@@H](CC(C)C)C(=O)N[C@@H](CC(C)C)C(=O)N[C@@H](C)C(=O)N[C@@H](CCC(N)=O)C(=O)N[C@@H](CCCNC(=N)N)C(=O)O)C(C)C)[C@@H](C)CC [AT261] (H-PGTFISDYSIAMDRIK(C16 diacid)QQDFVNWLLAQR-OH; N-terminus assumed)
Emax (human GIP receptor [1]): 24% | cAMP antagonism, % inhib (human GIP receptor [2]; Table 1C): 62% | IC50 (human GIP receptor [2]; nM (IC50), Table 1C): 200 nM | Emax (human GIP receptor [3]): 0%

CC[C@H](C)[C@H](NC(=O)[C@H](CO)NC(=O)[C@H](Cc1ccc(O)cc1)NC(=O)[C@H](CC(=O)O)NC(=O)[C@H](CO)NC(=O)[C@@H](NC(=O)[C@H](Cc1ccccc1)NC(=O)[C@@H](NC(=O)CNC(=O)CN)[C@@H](C)O)[C@@H](C)CC)C(=O)N[C@@H](C)C(=O)N[C@@H](CCSC)C(=O)N[C@@H](CC(=O)O)C(=O)N[C@@H](CCCNC(=N)N)C(=O)N[C@H](C(=O)N[C@@H](CCCCNC(=O)CC[C@H](NC(=O)CCCCCCCCCCCCCCC(=O)O)C(=O)O)C(=O)N[C@@H](CCC(N)=O)C(=O)N[C@@H](CCC(N)=O)C(=O)N[C@@H](CC(=O)O)C(=O)N[C@@H](Cc1ccccc1)C(=O)N[C@H](C(=O)N[C@@H](CC(N)=O)C(=O)N[C@@H](Cc1c[nH]c2ccccc12)C(=O)N[C@@H](CC(C)C)C(=O)N[C@@H](CC(C)C)C(=O)N[C@@H](C)C(=O)N[C@@H](CCC(N)=O)C(=O)N[C@@H](CCCNC(=N)N)C(=O)O)C(C)C)[C@@H](C)CC [AT263] (HELM PEPTIDE1{G.G.T.F.I.S.D.Y.S.I.A.M.D.R.I.K.Q.Q.D.F.V.N.W.L.L.A.Q.R}|PEPTIDE2{[O=C(O)CCCCCCCCCCCCCCC(=O)[*:2]].[gGlu]}$PEPTIDE1,PEPTIDE2,16:R3-2:R2$$$V2.0; N-terminus assumed)
Emax (human GIP receptor [1]): 8% | cAMP antagonism, % inhib (human GIP receptor [2]; Table 1C): 69% | IC50 (human GIP receptor [2]; nM (IC50), Table 1C): 21 nM | IC50 (human GIP receptor [2]; pIC50, Table 1C): 200 nM | Emax (human GIP receptor [3]): 0%

CC[C@H](C)[C@H](NC(=O)[C@H](CO)NC(=O)[C@H](Cc1ccc(O)cc1)NC(=O)[C@H](CC(=O)O)NC(=O)[C@H](CO)NC(=O)[C@@H](NC(=O)[C@H](Cc1ccccc1)NC(=O)[C@@H](NC(=O)CNC(=O)[C@@H](N)CO)[C@@H](C)O)[C@@H](C)CC)C(=O)N[C@@H](C)C(=O)N[C@@H](CCSC)C(=O)N[C@@H](CC(=O)O)C(=O)N[C@@H](CCCNC(=N)N)C(=O)N[C@H](C(=O)N[C@@H](CCCCNC(=O)CC[C@H](NC(=O)CCCCCCCCCCCCCCC(=O)O)C(=O)O)C(=O)N[C@@H](CCC(N)=O)C(=O)N[C@@H](CCC(N)=O)C(=O)N[C@@H](CC(=O)O)C(=O)N[C@@H](Cc1ccccc1)C(=O)N[C@H](C(=O)N[C@@H](CC(N)=O)C(=O)N[C@@H](Cc1c[nH]c2ccccc12)C(=O)N[C@@H](CC(C)C)C(=O)N[C@@H](CC(C)C)C(=O)N[C@@H](C)C(=O)N[C@@H](CCC(N)=O)C(=O)N[C@@H](CCCNC(=N)N)C(=O)O)C(C)C)[C@@H](C)CC [AT265] (HELM PEPTIDE1{S.G.T.F.I.S.D.Y.S.I.A.M.D.R.I.K.Q.Q.D.F.V.N.W.L.L.A.Q.R}|PEPTIDE2{[O=C(O)CCCCCCCCCCCCCCC(=O)[*:2]].[gGlu]}$PEPTIDE1,PEPTIDE2,16:R3-2:R2$$$V2.0; N-terminus assumed)
Emax (human GIP receptor [1]): 10% | cAMP antagonism, % inhib (human GIP receptor [2]; Table 1C): 73% | IC50 (human GIP receptor [2]; nM (IC50), Table 1C): 58.4 nM | Emax (human GIP receptor [3]): 8%

CC[C@H](C)[C@H](NC(=O)[C@H](CO)NC(=O)[C@H](Cc1ccc(O)cc1)NC(=O)[C@H](CC(=O)O)NC(=O)[C@H](CO)NC(=O)[C@@H](NC(=O)[C@H](Cc1ccccc1)NC(=O)[C@@H](NC(=O)CNC(=O)[C@@H]1CCCN1)[C@@H](C)O)[C@@H](C)CC)C(=O)N[C@@H](C)C(=O)N[C@@H](CCSC)C(=O)N[C@@H](CC(=O)O)C(=O)N[C@@H](CCCNC(=N)N)C(=O)N[C@H](C(=O)N[C@@H](CCCCNC(=O)CC[C@H](NC(=O)CCCCCCCCCCCCCCC(=O)O)C(=O)O)C(=O)N[C@@H](CCC(N)=O)C(=O)N[C@@H](CCC(N)=O)C(=O)N[C@@H](CC(=O)O)C(=O)N[C@@H](Cc1ccccc1)C(=O)N[C@H](C(=O)N[C@@H](CC(N)=O)C(=O)N[C@@H](Cc1c[nH]c2ccccc12)C(=O)N[C@@H](CC(C)C)C(=O)N[C@@H](CC(C)C)C(=O)N[C@@H](C)C(=O)N[C@@H](CCC(N)=O)C(=O)N[C@@H](CCCNC(=N)N)C(=O)O)C(C)C)[C@@H](C)CC [AT267] (HELM PEPTIDE1{P.G.T.F.I.S.D.Y.S.I.A.M.D.R.I.K.Q.Q.D.F.V.N.W.L.L.A.Q.R}|PEPTIDE2{[O=C(O)CCCCCCCCCCCCCCC(=O)[*:2]].[gGlu]}$PEPTIDE1,PEPTIDE2,16:R3-2:R2$$$V2.0; N-terminus assumed)
Emax (human GIP receptor [1]): 16% | cAMP antagonism, % inhib (human GIP receptor [2]; Table 1C): 52% | Emax (human GIP receptor [3]): 4%

CC[C@H](C)[C@H](NC(=O)[C@H](CO)NC(=O)[C@H](Cc1ccc(O)cc1)NC(=O)[C@H](CC(=O)O)NC(=O)[C@H](CO)NC(=O)[C@@H](NC(=O)[C@H](Cc1ccccc1)NC(=O)[C@@H](NC(=O)CNC(=O)[C@@H](N)CO)[C@@H](C)O)[C@@H](C)CC)C(=O)N[C@@H](C)C(=O)N[C@@H](CCSC)C(=O)N[C@@H](CC(=O)O)C(=O)N[C@@H](CCCNC(=N)N)C(=O)N[C@H](C(=O)N[C@@H](CCCCNC(=O)COCCOCCNC(=O)CC[C@H](NC(=O)CCCCCCCCCCCCCCC(=O)O)C(=O)O)C(=O)N[C@@H](CCC(N)=O)C(=O)N[C@@H](CCC(N)=O)C(=O)N[C@@H](CC(=O)O)C(=O)N[C@@H](Cc1ccccc1)C(=O)N[C@H](C(=O)N[C@@H](CC(N)=O)C(=O)N[C@@H](Cc1c[nH]c2ccccc12)C(=O)N[C@@H](CC(C)C)C(=O)N[C@@H](CC(C)C)C(=O)N[C@@H](C)C(=O)N[C@@H](CCC(N)=O)C(=O)N[C@@H](CCCNC(=N)N)C(=O)O)C(C)C)[C@@H](C)CC [AT271] (HELM PEPTIDE1{S.G.T.F.I.S.D.Y.S.I.A.M.D.R.I.K.Q.Q.D.F.V.N.W.L.L.A.Q.R}|PEPTIDE2{[O=C(O)CCCCCCCCCCCCCCC(=O)[*:2]].[gGlu].[O=C(COCCOCCN[*:1])[*:2]]}$PEPTIDE1,PEPTIDE2,16:R3-3:R2$$$V2.0; N-terminus assumed)
Emax (human GIP receptor [1]): 9% | cAMP antagonism, % inhib (human GIP receptor [2]; Table 1C): 73% | IC50 (human GIP receptor [2]; nM (IC50), Table 1C): 85.8 nM | Emax (human GIP receptor [3]): 2%
